# Reference: patent US4166125A, “2-Oxo-phenylbutanoic acid derivatives” (Grelan Pharmaceutical Co., Ltd., priority 1977, dated 1979)
# Legend:
# adjuvant arthritis = experiment: Inhibition to adjuvant arthritis (oral administration); format: in vivo, rat (Sprague-Dawley strain); settings: for Increase in body weight / Weight of the organs: Adrenal glands / Weight of the organs: Spleen / Weight of the organs: Thymus: once a day for 7 days
# Experimental: Inhibition to adjuvant arthritis.
# According to a method conforming to Fujihira et al [Oyo Yakuri, 5, 169, (1971)], liquid paraffin suspension of Mycobacterium butiricum (hereinafter abbreviated as adjuvant) was injected subcutaneously to right hind paws of male rats (Spraque-Dawley strain) weighing 150 to 170 g in an amount of 0.3 mg/0.05 ml/rat. 14 Days after adjuvant injection, the rats, paws of which swelled to a similar degree, were selected and they were separated into groups. From the 15th day after adjuvant injection, each test compound suspended in 0.3% CMC-Na solution was orally administered once a day for 7 days to the 7 rats in each group in the dose shown in the following table 2.
# The 16th, 19th and 22nd days after adjuvant injection the volume of left hand paws (i.e. paws not treated with the adjuvant) of the rats and their body weight were measured. Inhibition percent to the arthritis (edema) is calculated according to the same equation as that used in Experiment 1, and the value of ED40 is calculated on the basis of the inhibition percent. Then the rats were sacrificed with ether and the weight of their thymus, adrenal glands and spleen was determined.
# carrageenin edema = experiment: Inhibitory effect on carrageenin edema (oral administration); format: in vivo, rat (Sprague-Dawley strain)
# Experimental: Inhibitory effect on carrageenin edema.
# The experiment was carried out according to a method conforming to Van Arman, C. […] One hour after the administration of the test compound, 0.1 ml of 1% carrageenin solution in physiological saline was injected subcutaneously into the plantar sarface of the right hind paws of the rats. One hour after injection of carrageenin, the volume of the injected paws was measured hourly for 4 hours. Inhibition percent to carrageenin edema (%)* was calculated in comparison with the volume of paws of rats of a control group, to which only 0.3% CMC-Na solution was orally administered. [formula]
# [1] = test system: writhing syndrome due to acetic acid; experiment: Analgesic activity, stretching method (oral administration); format: in vivo, mouse (ddY-strain)
# Experimental: The experiment was carried out according to a method conforming to Koster R. et al [Federation Proceedings 18, 412, (1960)]. […] 30 Minutes after administration of the test compound, 0.6% acetic acid aqueous solution was injected intraperitoneally to the mice in an amount of 0.1 ml per 10 g of body weight of the mouse, and then frequency of writhing syndrome due to acetic acid was counted for 20 minutes. Inhibition percent to the writhing syndrome was calculated in comparison with frequency of writhing syndrome counted on mice of a control group, to which only 1% gum arabic solution was orally administered.
structure (smiles),measurement,setting,value
CC(C(=O)C(N)=O)c1ccc(N2Cc3ccccc3C2=O)cc1 (stereo not drawn) [2-oxo-3-[4-(1-oxo-2-isoindolinyl)phenyl]butanamide],Inhibition to adjuvant arthritis,"adjuvant arthritis; 25 mg/Kg oral, 1st day",24.0%
same,Inhibition to adjuvant arthritis,"adjuvant arthritis; 25 mg/Kg oral, 4th day",25.1%
same,Inhibition to adjuvant arthritis,"adjuvant arthritis; 25 mg/Kg oral, 7th day",35.2%
same,Increase in body weight,adjuvant arthritis; 25 mg/Kg oral,28.4 g
same,Weight of the organs: Adrenal glands,adjuvant arthritis; 25 mg/Kg oral,12.5 ± 1.3 mg/100g of body weight
same,Weight of the organs: Spleen,adjuvant arthritis; 25 mg/Kg oral,441.1 ± 39.6 mg/100g of body weight
same,Weight of the organs: Thymus,adjuvant arthritis; 25 mg/Kg oral,146.0 ± 7.3 mg/100g of body weight
same,Inhibition to adjuvant arthritis,"adjuvant arthritis; 100 mg/Kg oral, 1st day",32.7%
same,Inhibition to adjuvant arthritis,"adjuvant arthritis; 100 mg/Kg oral, 4th day",34.5%
same,Inhibition to adjuvant arthritis,"adjuvant arthritis; 100 mg/Kg oral, 7th day",45.3%
same,Increase in body weight,adjuvant arthritis; 100 mg/Kg oral,40.7 g
same,Weight of the organs: Adrenal glands,adjuvant arthritis; 100 mg/Kg oral,11.5 ± 0.7 mg/100g of body weight
same,Weight of the organs: Spleen,adjuvant arthritis; 100 mg/Kg oral,414.2 ± 28.8 mg/100g of body weight
same,Weight of the organs: Thymus,adjuvant arthritis; 100 mg/Kg oral,147.2 ± 15.6 mg/100g of body weight
same,Inhibition to carrageenin edema,"carrageenin edema; 12.5 mg/Kg oral, 3 hour after administration",29.2 ± 6.4%
same,Inhibition to carrageenin edema,"carrageenin edema; 12.5 mg/Kg oral, 4 hour after administration",29.3 ± 4.4%
same,Inhibition to carrageenin edema,"carrageenin edema; 25 mg/Kg oral, 3 hour after administration",29.2 ± 9.0%
same,Inhibition to carrageenin edema,"carrageenin edema; 25 mg/Kg oral, 4 hour after administration",26.6 ± 8.2%
same,Inhibition to carrageenin edema,"carrageenin edema; 50 mg/Kg oral, 3 hour after administration",35.6 ± 3.9%
same,Inhibition to carrageenin edema,"carrageenin edema; 50 mg/Kg oral, 4 hour after administration",34.1 ± 1.2%
same,Inhibition to carrageenin edema,"carrageenin edema; 100 mg/Kg oral, 3 hour after administration",51.0 ± 8.6%
same,Inhibition to carrageenin edema,"carrageenin edema; 100 mg/Kg oral, 4 hour after administration",42.8 ± 6.9%
same,ED40,"carrageenin edema; Rattus norvegicus, oral, from inhibition percent to edema at 3 hours after administration, read-out: ED40",48 mg/kg
same,Inhibition to writhing syndrome,[1]; 100 mg/Kg oral,4%
same,Inhibition to writhing syndrome,[1]; 200 mg/Kg oral,33%
same,Inhibition to writhing syndrome,[1]; 400 mg/Kg oral,62%
same,Dose-response of inhibition to writhing syndrome,[1]; dose range of 100 to 400 mg/Kg,clear dose-response
